The record followed here is ChEMBL document CHEMBL1201862, “PubChem BioAssay data set” (2004).

Molecules are shown by their SMILES.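 These data come from cells grown in 96-well plates and exposed to compound for 48 hours at five concentrations. GI50 marks 50% less growth.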 Activity calls are given as the source filed them. Cut-off read from the data, not from the text of the source: active = GI50 up to about 1.1 µM and inactive = higher. A value given as a limit tells only on which side of the number the result lay.

Some test systems named below: CCRF-CEM; Hs-578T; NCI-H23; SN12C; OVCAR-3; RXF 393; SF-268; TK-10; SF-539; UACC-62; MOLT-4; U-251; SK-MEL-5; EKVX; LOX IMVI; OVCAR-5; NCI-H226; HCT-116; SR; MDA-N.
Holding throughout (test): NCI tumour cell line growth inhibition, 48 h

Turning to `CCOC(=O)/C=C(\C(=O)OCC)n1cnc2c(N)ncnc21`, the GI50 in the experiment with CCRF-CEM is 1.63 µM (inactive); in the experiment on Hs-578T, 19.7 µM (inactive); with NCI-H23 it was 13.7 µM (inactive); in the experiment with SN12C, 5.19 µM (inactive); in the experiment on OVCAR-3, 8.41 µM (inactive); in the experiment on RXF 393, 12.6 µM (inactive). Further, the GI50 in the experiment with SF-268 is 15.3 µM (inactive); with TK-10, 5.02 µM (inactive); with SF-539, 14.1 µM (inactive); with UACC-62 it was 10.7 µM (inactive); in the experiment on MOLT-4, 2.44 µM (inactive); in the experiment on U-251 it was 7.94 µM (inactive). For the same molecule, the GI50 in the experiment on SK-MEL-5 is 14.7 µM (inactive); with EKVX, 8.2 µM (inactive); with LOX IMVI, 3.43 µM (inactive); with OVCAR-5, 5.83 µM (inactive); in the experiment with NCI-H226, 5.97 µM (inactive); in the experiment with HCT-116 it was 3.11 µM (inactive). Further, the GI50 with SR is 1.91 µM (inactive); in the experiment on MDA-N it was 14.6 µM (inactive).

For the molecule `CCSc1nc(N2CCCC2)s[s+]1.[O-][Cl+3]([O-])([O-])[O-]`, the GI50 with CCRF-CEM was 0.764 µM (active); in the experiment on Hs-578T it was 40.6 µM (inactive); in the experiment on NCI-H23, 46.8 µM (inactive); in the experiment with SN12C, 46.1 µM (inactive); in the experiment on OVCAR-3 it was 3.58 µM (inactive); in the experiment on RXF 393, 30.9 µM (inactive). Further, the GI50 in the experiment with SF-268 is 40.2 µM (inactive); in the experiment with TK-10, 90.8 µM (inactive); with SF-539 it was 43 µM (inactive); in the experiment on UACC-62, 0.684 µM (active); with MOLT-4 it was 3.29 µM (inactive); in the experiment with U-251 it was 56.4 µM (inactive). Further, the GI50 in the experiment with SK-MEL-5 was 0.08 µM (active); in the experiment on EKVX, 67.3 µM (inactive); with LOX IMVI it was 19.1 µM (inactive); in the experiment with OVCAR-5 it was > 100 µM (inactive); with NCI-H226, 63.4 µM (inactive); in the experiment with HCT-116 it was 28.4 µM (inactive). The GI50 with SR was 1.04 µM (active); in the experiment on MDA-N, 16.3 µM (inactive).

With `NC1=Nc2ncccc2C(=O)NN1`, the GI50 in the experiment with CCRF-CEM was > 10 µM (inactive); with Hs-578T it was 0.382 µM (active); in the experiment with NCI-H23 it was > 10 µM (inactive); in the experiment with SN12C, > 10 µM (inactive); in the experiment on OVCAR-3, > 10 µM (inactive); in the experiment on RXF 393, > 10 µM (inactive). Besides, the GI50 in the experiment on SF-268, in the experiment with TK-10, in the experiment with SF-539, in the experiment with UACC-62, in the experiment on MOLT-4 and in the experiment on U-251 was > 10 µM (inactive) throughout. Besides, the GI50 with SK-MEL-5, in the experiment with EKVX, in the experiment with LOX IMVI, in the experiment with OVCAR-5, in the experiment on NCI-H226 and in the experiment on HCT-116 was > 10 µM (inactive) in each case. In addition, the GI50 in the experiment with SR and in the experiment on MDA-N was > 10 µM (inactive) each time.

Regarding `Cc1ccc(-c2cn3c(nc4ccccc43)c(C)n2)cc1`, the GI50 in the experiment with CCRF-CEM was 85.3 µM (inactive); in the experiment with Hs-578T, 51.3 µM (inactive); in the experiment on NCI-H23, 22.6 µM (inactive); in the experiment on SN12C, 55.6 µM (inactive); in the experiment with OVCAR-3 it was 48 µM (inactive); in the experiment on RXF 393, 21.8 µM (inactive). Moreover, the GI50 was > 46.6 µM (inactive) with SF-268; 43.9 µM (inactive) with TK-10; > 54.3 µM (inactive) with SF-539; 23.5 µM (inactive) in the experiment on UACC-62; 43.7 µM (inactive) in the experiment with MOLT-4; 32.4 µM (inactive) in the experiment with U-251. Also, the GI50 in the experiment on SK-MEL-5 is 10.7 µM (inactive); in the experiment on EKVX, > 54 µM (inactive); in the experiment on LOX IMVI, 71.6 µM (inactive); in the experiment on OVCAR-5, 51.6 µM (inactive); in the experiment with NCI-H226 it was 34.3 µM (inactive); with HCT-116, 32 µM (inactive). For the same molecule, the GI50 in the experiment on SR is 21.5 µM (inactive); in the experiment with MDA-N, 54.1 µM (inactive).

As to `CN(C)CCNC(=O)c1cccc2nc3cccc(F)c3nc12`, the GI50 with CCRF-CEM was 1.11 µM (active); in the experiment with Hs-578T, 1.41 µM (inactive); with NCI-H23 it was 1.5 µM (inactive); in the experiment with SN12C, 1.02 µM (active); in the experiment with OVCAR-3 it was 1.99 µM (inactive); with RXF 393, 1.54 µM (inactive). In addition, the GI50 in the experiment on SF-268 is 2.31 µM (inactive); with TK-10 it was 2 µM (inactive); in the experiment with SF-539, 1.86 µM (inactive); with UACC-62, 2.88 µM (inactive); in the experiment with MOLT-4, 0.366 µM (active); in the experiment on U-251, 1.38 µM (inactive). The GI50 was 1.13 µM (inactive) with SK-MEL-5; 2.16 µM (inactive) in the experiment with EKVX; 0.614 µM (active) with LOX IMVI; 2.6 µM (inactive) with OVCAR-5; 1.24 µM (inactive) with NCI-H226; 0.542 µM (active) in the experiment on HCT-116. Further, the GI50 was 0.57 µM (active) with SR and 1.46 µM (inactive) with MDA-N.

Turning to `CNc1ccc(C)cc1S(=O)(=O)c1ccccc1[N+](=O)[O-]`, the GI50 with CCRF-CEM is 21.4 µM (inactive); in the experiment with Hs-578T, 55.7 µM (inactive); with NCI-H23, 63 µM (inactive); in the experiment with SN12C, 86.7 µM (inactive); with OVCAR-3, 43.2 µM (inactive); with RXF 393 it was > 100 µM (inactive). For the same molecule, the GI50 with SF-268 was 53 µM (inactive); in the experiment on TK-10 it was 99.3 µM (inactive); in the experiment with SF-539, > 100 µM (inactive); in the experiment on UACC-62 it was 22.1 µM (inactive); in the experiment on MOLT-4 it was 18.4 µM (inactive); with U-251, 57.7 µM (inactive). Also, the GI50 with SK-MEL-5 was 18.2 µM (inactive); in the experiment with EKVX it was 51.8 µM (inactive); in the experiment on LOX IMVI, 30.9 µM (inactive); in the experiment with OVCAR-5, > 100 µM (inactive); with NCI-H226, 75.5 µM (inactive); in the experiment with HCT-116, 48.4 µM (inactive). Moreover, the GI50 in the experiment on SR was 51.3 µM (inactive); with MDA-N it was 26.2 µM (inactive).
